# Data as given in patent publication US6060600A, “Substituted tetronic acids useful for treating HIV and other retroviruses” (Pharmacia & Upjohn Company, priority 1997, dated 2000).
# Square brackets hold non-standard residues; d marks the D form. Peptide text beside a SMILES is read from it. * marks the point of attachment. Sta = CC(C)C[C@H](N)[C@@H](O)CC(=O)O; Isovaleryl = CC(C)CC(=O)*
# Tests used:
# HIV-1 protease = target: T1, HIV-1 protease (Human immunodeficiency virus type 1 group M subtype B, UniProt P04585); experiment: In vitro HIV protease inhibitory assay (fluorescently labeled substrate); assay type: biochemical; conditions: pH 5.5, one hour, room temperature
# T1 construct: The protease (or proteinase) enzyme, consisting of only 99 amino acids
# Method: The HIV protease screening assay is based on a fluorescently labeled substrate which can be resolved from nonlabeled cleavage product using avidin-polystyrene particles, 0.7-0.9 μm. The substrate is biotinylated at the amino terminal arginine and fluorescently labeled with fluorescein isothiocynate (FITC) at the carboxyl terminal lysine. This assay has been employed to detect novel, nonpeptidic inhibitors of HIV-1 protease. Substrate (20 μl of 0.2 μM), sample (10 μl of desired concentration), and enzyme (10 μl of 0.1 μM) are added to a 96 well pandex plate. The assay is run in 0.1 M sodium acetate buffer at pH 5.5 in the presence of 1.0 M sodium chloride and 0.05% NP-40 and incubated in the dark for one hour at room temperature. Avidin coated polystyrene beads (40 μl of 0.1% (w/v)) are added and the incubation is continued in the dark for an additional half hour. The labeled cleavage product is separated from the unreacted substrate via filtration and is read on the IDEXX Screen Machine. (IDEXX Corporation--Portland, Maine) The data are analyzed by appropriate computer algorithms to ascertain percent inhibition values.
# The Activity Table showing the results of the HIV Protease Inhibitory Assay appears below in TABLE 1. The table has three columns, the left column provides the code number of the compound for easy cross reference to structure tables and detailed procedures, the middle column provides the concentration of test compound and the column on the right provides the percent inhibition.
# [1] = system: viral reverse transcriptase; conditions: cited from earlier work
# HIV-I protease = conditions: Seelmeier et al.; cited from earlier work
# [2] = HIV-1 Dose 3.3 (unit not given)
# [3] = HIV-1 Dose 10.0 (unit not given)
# [4] = HIV-1 Dose 30.0 (unit not given)
% Inhibition (HIV-1 protease; [2]) [%],% Inhibition (HIV-1 protease; [3]) [%],% Inhibition (HIV-1 protease; [4]) [%],Compound,inhibitor of viral reverse transcriptase [1],inhibitor of HIV-I protease (HIV-I protease)
108.42,106.81,106.29,C=CCC1(CC=C)OC(=O)C(C(c2ccccc2)C2CC2)=C1O (centres unmarked) [DX-4],–,–
107.56,109.04,110.58,N#Cc1ccc(S(=O)(=O)Nc2cccc(C(C3=C(O)C4(CCN(C(=O)c5ccccc5)CC4)OC3=O)C3CC3)c2)cc1 (centres unmarked) [CX-2],–,–
113.09,126.98,123.63,N#Cc1ccc(S(=O)(=O)Nc2cccc(C(C3=C(O)C4(CCN(C(=O)OCC5c6ccccc6-c6ccccc65)CC4)OC3=O)C3CC3)c2)cc1 (centres unmarked) [BX-1],–,–
117.26,110.16,113.83,CCC1CCCCC12OC(=O)C(C(c1cccc(NS(=O)(=O)c3ccc(C#N)cc3)c1)C1CC1)=C2O (centres unmarked) [DX-3],–,–
71.3,94.47,101.07,CCN1CCC2(CC1)OC(=O)C(C(c1cccc(NS(=O)(=O)c3ccc(C#N)cc3)c1)C1CC1)=C2O (centres unmarked) [BX-4],–,–
61.58,85.22,98.54,CN1CCC2(CC1)OC(=O)C(C(c1cccc(NS(=O)(=O)c3ccc(C#N)cc3)c1)C1CC1)=C2O (centres unmarked) [BX-5],–,–
–,–,–,"Cc1cn([C@H]2C[C@H](N=[N+]=[N-])[C@@H](CO)O2)c(=O)[nH]c1=O [AZT, 3-azido-3-deoxythymidine]",known inhibitor of viral reverse transcriptase,–
–,–,–,CC(C)CC(=O)N[C@H](C(=O)N[C@H](C(=O)N[C@@H](CC(C)C)[C@@H](O)CC(=O)N[C@@H](C)C(=O)N[C@@H](CC(C)C)[C@@H](O)CC(=O)O)C(C)C)C(C)C [Pepstatin A] (Isovaleryl-VV[Sta]A[Sta]-OH),–,inhibitor of HIV-I protease
108.97,109.57,113.85,CCCC1(CCC)OC(=O)C(C(c2cccc(NS(=O)(=O)c3cccnn3)c2)C2CC2)=C1O (centres unmarked) [DX-1],–,–
115.79,115.80,113.98,CCC1CCCCC12OC(=O)C(C(c1cccc(NS(=O)(=O)c3ccc(C#N)cc3)c1)C1CC1)=C2O (centres unmarked) [DX-2],–,–
90.58,103.27,101.26,N#Cc1ccc(S(=O)(=O)Nc2cccc(C(C3=C(O)C4(CCNCC4)OC3=O)C3CC3)c2)cc1 (centres unmarked) [BX-2],–,–
103.5,111.53,102.32,CCCC1(CCC)OC(=O)C(C(c2cccc(N(C)S(=O)(=O)c3ccc(C#N)cc3)c2)C2CC2)=C1O (centres unmarked) [AX-1],–,–
107.43,98.33,103.37,CC(=O)N1CCC2(CC1)OC(=O)C(C(c1cccc(NS(=O)(=O)c3ccc(C#N)cc3)c1)C1CC1)=C2O (centres unmarked) [CX-1],–,–
108.72,107,103.12,N#Cc1ccc(S(=O)(=O)Nc2cccc(C(C3=C(O)C4(CCN(CC5c6ccccc6-c6ccccc65)CC4)OC3=O)C3CC3)c2)cc1 (centres unmarked) [BX-3],–,–
